# Starred links: 1 amine or outer side, 2 acyl side, 3 side chain; linkers in the order of their positions; H or OH if unused. Positions of bridges follow the written chain, without caps; N, C: chain ends. Non-standard residues stand in square brackets, D forms with d. Residues, ends and D or L forms follow the SMILES beside them. Chains are numbered I, II in the order given. N(4-MeOBn)Gly = COc1ccc(CNCC(=O)O)cc1; N((CH2)3OiPr)Gly = CC(C)OCCCNCC(=O)O; X1 = CC(c1ccccc1)N(CC(=O)[*:2])[*:1]; NAllylGly = C=CCNCC(=O)O; Nleu = CC(C)CNCC(=O)O; Nme = COCCNCC(=O)O
# Legend:
# [1] = target: T1, ACE2 in human H1299 cells (Homo sapiens, UniProt Q9BYF1); assay: ACE2 enzymatic activity in cell homogenates; format: biochemical; conditions: captopril 10 µM
# T1 construct: endogenous in cells; host or cells: H1299 human lung cancer cells
# T1 sequence (Q9BYF1 18-805): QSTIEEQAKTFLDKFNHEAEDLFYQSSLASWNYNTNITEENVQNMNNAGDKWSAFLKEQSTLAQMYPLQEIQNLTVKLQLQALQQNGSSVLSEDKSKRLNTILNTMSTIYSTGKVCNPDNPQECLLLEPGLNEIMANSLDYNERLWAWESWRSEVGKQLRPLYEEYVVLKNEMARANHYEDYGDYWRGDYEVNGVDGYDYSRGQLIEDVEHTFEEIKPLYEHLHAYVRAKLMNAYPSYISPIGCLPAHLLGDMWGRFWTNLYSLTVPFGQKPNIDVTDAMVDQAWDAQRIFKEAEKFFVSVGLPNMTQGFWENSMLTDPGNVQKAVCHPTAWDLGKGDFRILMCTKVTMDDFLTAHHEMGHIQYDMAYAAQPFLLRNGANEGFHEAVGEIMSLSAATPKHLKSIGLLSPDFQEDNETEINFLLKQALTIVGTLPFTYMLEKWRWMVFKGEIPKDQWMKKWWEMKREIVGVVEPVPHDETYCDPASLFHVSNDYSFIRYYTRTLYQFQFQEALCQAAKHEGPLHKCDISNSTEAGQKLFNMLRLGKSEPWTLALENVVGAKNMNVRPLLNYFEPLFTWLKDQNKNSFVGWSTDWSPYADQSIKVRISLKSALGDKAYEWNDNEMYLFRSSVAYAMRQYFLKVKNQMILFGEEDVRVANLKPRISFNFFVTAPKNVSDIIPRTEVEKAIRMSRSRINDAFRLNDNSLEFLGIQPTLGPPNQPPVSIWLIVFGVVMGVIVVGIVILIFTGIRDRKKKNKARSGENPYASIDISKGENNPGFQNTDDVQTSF
# Procedure: (§1) Assays were run at 37° C. in an ACE2 reaction buffer containing 10 µM Mca-YVADAPK(Dnp), in a total volume of 100 µl. Fluorescence emission at 405 nm, after excitation at 320 nm, was measured in a microplate reader. Cleavage of the substrate Mca-YVADAPK(Dnp) by ACE2 enzyme produces fluorescence. The strength of the fluorescence indicates the ACE2 enzymatic activity.
# (§2) To measure ACE2 activity in cells, cell homogenates were used. To prevent hydrolysis of the substrate by a range of nonmetalloprotease enzymes from the cells, cOmplete™ Protease Inhibitor Cocktail (Roche/Sigma) were added to the cell homogenates. To eliminate the effects of ACE on the substrate, ACE inhibitor captopril (10 µM) was added to the assay.
# ACE2 in MCF-7 cells = target: T2, ACE2 in MCF-7 cells (Homo sapiens, UniProt Q9BYF1); assay: ACE2 enzymatic activity in cell homogenates; format: biochemical; conditions: MCF-7 cell homogenates, captopril 10 µM
# T2 construct: endogenous in cells; host or cells: MCF-7 cells
# T2 sequence (Q9BYF1 18-805): as above
# Procedure: as §1, §2
# [2] = target: SARS-CoV-2 spike protein binding to ACE2 (Homo sapiens, UniProt Q9BYF1); assay: GST pull-down assay of spike protein-ACE2 interaction; conditions: premixed with ACE2 for 30 minutes; ACE2 detected by western blot
# Sequence of SARS-CoV-2 spike protein binding to ACE2 (Q9BYF1 18-740): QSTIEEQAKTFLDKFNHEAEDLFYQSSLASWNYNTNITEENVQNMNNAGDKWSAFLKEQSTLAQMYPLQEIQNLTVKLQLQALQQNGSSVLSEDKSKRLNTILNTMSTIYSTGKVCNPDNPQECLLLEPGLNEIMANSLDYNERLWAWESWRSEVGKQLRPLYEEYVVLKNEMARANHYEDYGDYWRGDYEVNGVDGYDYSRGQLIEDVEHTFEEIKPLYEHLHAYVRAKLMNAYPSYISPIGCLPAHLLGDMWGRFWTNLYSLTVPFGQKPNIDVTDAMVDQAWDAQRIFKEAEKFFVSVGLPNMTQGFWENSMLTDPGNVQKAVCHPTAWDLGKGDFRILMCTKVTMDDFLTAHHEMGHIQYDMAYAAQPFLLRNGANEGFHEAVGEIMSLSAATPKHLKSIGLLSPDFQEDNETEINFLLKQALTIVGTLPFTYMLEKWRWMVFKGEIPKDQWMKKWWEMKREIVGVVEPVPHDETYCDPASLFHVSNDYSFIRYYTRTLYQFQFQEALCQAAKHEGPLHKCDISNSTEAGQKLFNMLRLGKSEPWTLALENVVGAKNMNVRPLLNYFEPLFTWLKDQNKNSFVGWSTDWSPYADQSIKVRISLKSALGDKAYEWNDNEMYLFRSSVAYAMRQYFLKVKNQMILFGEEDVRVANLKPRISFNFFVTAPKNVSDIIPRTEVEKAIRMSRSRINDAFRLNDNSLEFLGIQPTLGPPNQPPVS
# HEK293T cells = assay: WST-1 cell viability assay; format: cell-based, human; conditions: various concentrations, 48 hours
# Procedure: (§3) MCF-7 and HEK293T cells were treated with various concentrations of ACE2P1D1 (FIG. 12A) or ACE2P2D1 (FIG. 12B) for 48 hours. Cell viability was measured by a WST-1 assay.
# (§4) To assess whether the peptoids are toxic to human cells, Applicant performed the WST-1 assay.
# MCF-7 cells = assay: WST-1 cell viability assay; format: cell-based, human; conditions: various concentrations, 48 hours
# Procedure: as §3, §4
# SARS-CoV-2 pseudovirus = format: cell-based, human H1299 cells
# ACE2 protein [3] = target: T3, ACE2 protein (Homo sapiens, UniProt Q9BYF1); assay: ACE2 enzymatic activity, Mca-YVADAPK(Dnp) fluorescence assay; format: biochemical; conditions: up to 10 µM peptoid; 10 µM Mca-YVADAPK(Dnp), 37° C.
# T3 sequence (Q9BYF1 18-805): as the sequence (Q9BYF1 18-805) above
# Procedure: as §1
# ACE2 is an enzyme that lowers blood pressure by catalyzing the hydrolysis of angiotensin II. […] Applicant assessed the effects of ACE2P1D1 and ACE2P2D1 on ACE2 enzyme activity on recombinant ACE2 protein.
# ACE2 in Caco-2 cells = target: T4, ACE2 in Caco-2 cells (Homo sapiens, UniProt Q9BYF1); assay: ACE2 enzymatic activity in cell homogenates; format: biochemical; conditions: Caco-2 cell homogenates, captopril 10 µM
# T4 construct: endogenous in cells; host or cells: Caco-2 cells
# T4 sequence (Q9BYF1 18-805): as above
# Procedure: as §1, with “in” for “in an”
# as §2
# [4] = target: T5, ACE2 protein levels on cell surface (Homo sapiens, UniProt Q9BYF1); assay: ACE2 surface expression by flow cytometry; format: cell-based; conditions: H1299 cells, 48 hours
# T5 construct: endogenous in cells; host or cells: H1299 human lung cancer cells
# T5 sequence (Q9BYF1 18-805): as above
# Procedure: H1299 cells were treated with ACE2P1D1 or ACE2P2D1 for 48 hours. ACE2 surface expression was determined by flow cytometry analysis.
# Next, Applicant determined whether or not the peptoids in this Example can decrease ACE2 levels on a cell surface.
# ACE2 protein [5] = target: T3, ACE2 protein; assay: Protein Thermal Shift assay; format: binding; conditions: 10 µM peptoid
# Procedure: FIGS. 8A-D illustrate that ACE2P1 and ACE2P2 interact directly with ACE2. FIG. 8A provides experimental results from an in vitro pulldown assay for ACE2P1 and ACE2P2. […] The thermal shift assay was carried out on a QuantStudio 3 Real-Time PCR System.
# Next, Applicant created the dimers of ACE2P1 and ACE2P2 (FIG. 8B) and performed thermal shift assays using recombinant ACE2 proteins. Thermal shift assay is routinely used in drug discovery to identify protein-ligand interactions. The Applied Biosystems™ Protein Thermal Shift™ assay measures protein thermal stability using a fluorescent protein-binding dye. […] The protein is mixed with the dye and heated. As it unfolds or melts, hydrophobic parts of the protein are exposed and bind to the dye, resulting in fluorescence emission detected by the qPCR system. Binding of a ligand to the protein changes the stability of the protein, resulting in a change in fluorescence intensity.
# ACE2 protein [6] = target: T3, ACE2 protein; assay: ACE2 expression by western blot; format: cell-based; set-up: endogenous in cells; host or cells: MCF-7 and Caco-2 cells; conditions: MCF-7 and Caco-2 cells, various doses, 48 hours
# Procedure: MCF-7 and Caco-2 cells were treated with various concentrations of ACE2P1D1 or ACE2P2D1 for 48 hours. ACE2 expression was determined by western blot analysis.
# As ACE2 is important in blood pressure regulation, Applicant assessed whether the peptoids can decrease ACE2 expression in human cells.
# ACE2 protein [7] = target: T3, ACE2 protein; assay: in vitro pulldown assay with peptoid conjugated beads; format: binding; conditions: 4° C. overnight, western blotting
# Procedure: To confirm a direct interaction between the peptoids and ACE2, Applicant performed in vitro pulldown assays. Recombinant human ACE2 protein was incubated with ACE2P1 or ACE2P2 conjugated beads at 4° C. overnight. The beads were then washed with PBS buffer for 3 times, and the binding proteins were eluted with 1% SDS. The yielded lysates were then applied onto 10% SDS-PAGE gel and subjected to western blotting (FIG. 8A).
# [8] = system: ACE2 expressing MCF-7 cells; assay: on-bead cell binding of resynthesized peptoids (OBTC two-color); format: cell-based, human; conditions: peptoid on tentagel bead; ACE2+ red stained, ACE2- green stained MCF-7 cells
# Procedure: FIG. 6 provides experimental results illustrating that on-bead peptoids ACE2P1 and ACE2P2 bind to human ACE2 positive cells. The compounds ACE2P1 and ACE2P2 were resynthesized on the tentagel bead and incubated with ACE2 expressing MCF-7 cells (red stained) and ACE2 negative MCF-7 cells (green stained) individually as well as 1:1 mixture of red and green cells.
# Applicant resynthesized the identified ACE2P1 and ACE2P2 peptoids on-bead and introduced human ACE2^+ (red stained) and ACE2^- (green stained) MCF-7 cells separately to these two peptoid carrying beads.
Structure (SMILES),enzymatic activity of ACE2 [1],enzymatic activity of ACE2 (ACE2 in MCF-7 cells),binding of spike protein to ACE2 [2],cell viability (HEK293T cells),cell viability (MCF-7 cells),SARS-CoV-2 pseudovirus infection (SARS-CoV-2 pseudovirus),ACE2 enzyme activity (ACE2 protein [3]),enzymatic activity of ACE2 (ACE2 in Caco-2 cells),ACE2 protein levels on cell surface [4],change in protein melting temperature (ACE2 protein [5]),expression levels of ACE2 protein (ACE2 protein [6]),pull down of ACE2 protein (ACE2 protein [7]),binding of peptoid beads to ACE2+ versus ACE2- MCF-7 cells [8]
C=CCN(CC(=O)N(CC(=O)NC(CCCCN)C(=O)NC(CCSC)C(=O)NCCCCC(NC(=O)C(CCSC)NC(=O)C(CCCCN)NC(=O)CN(C(=O)CN(CC=C)C(=O)CN(Cc1ccc(OC)cc1)C(=O)CN(C(=O)CN(CCOC)C(=O)CNCC(C)C)C(C)c1ccccc1)C(C)c1ccccc1)C(N)=O)C(C)c1ccccc1)C(=O)CN(Cc1ccc(OC)cc1)C(=O)CN(C(=O)CN(CCOC)C(=O)CNCC(C)C)C(C)c1ccccc1 (stereo not shown) [ACE2P1D1] (I: H-[Nleu][Nme][X1][N(4-MeOBn)Gly][NAllylGly][X1]KMK-NH2 / II: H-[Nleu][Nme][X1][N(4-MeOBn)Gly][NAllylGly][X1]KM; amide I:9-II:C; configuration not given here),did not affect the enzymatic activity of ACE2,did not affect the enzymatic activity of ACE2,prevented the binding of spike protein to ACE2,no effects on the viability,no effects on the viability,effective in inhibiting SARS-CoV-2 pseudovirus infection,no effects on ACE2 activity,did not affect the enzymatic activity of ACE2,did not decrease the ACE2 protein levels on cell surface,increase in protein melting temperature,did not decrease the expression levels of ACE2 protein,,
C=CCN(CC(=O)N(CC(=O)NC(CCCCN)C(=O)NC(CCSC)C(N)=O)C(C)c1ccccc1)C(=O)CN(Cc1ccc(OC)cc1)C(=O)CN(C(=O)CN(CCOC)C(=O)CNCC(C)C)C(C)c1ccccc1 (stereo not shown) [ACE2P1] (H-[Nleu][Nme][X1][N(4-MeOBn)Gly][NAllylGly][X1]KM-NH2; configuration not given here),,,increased the binding of spike protein to ACE2,,,,,,,,,able to pull down the ACE2 protein,bound only to red stained ACE2^+ cells
COCCN(CC(=O)NC(CCCCN)C(=O)NC(CCSC)C(=O)NCCCCC(NC(=O)C(CCSC)NC(=O)C(CCCCN)NC(=O)CN(CCOC)C(=O)CN(CC(C)C)C(=O)CN(CC(C)C)C(=O)CN(CCCOC(C)C)C(=O)CN(Cc1ccc(OC)cc1)C(=O)CNCc1ccc(OC)cc1)C(N)=O)C(=O)CN(CC(C)C)C(=O)CN(CC(C)C)C(=O)CN(CCCOC(C)C)C(=O)CN(Cc1ccc(OC)cc1)C(=O)CNCc1ccc(OC)cc1 (stereo not shown) [ACE2P2D1] (I: H-[N(4-MeOBn)Gly][N(4-MeOBn)Gly][N((CH2)3OiPr)Gly][Nleu][Nleu][Nme]KMK-NH2 / II: H-[N(4-MeOBn)Gly][N(4-MeOBn)Gly][N((CH2)3OiPr)Gly][Nleu][Nleu][Nme]KM; amide I:9-II:C; configuration not given here),did not affect the enzymatic activity of ACE2,did not affect the enzymatic activity of ACE2,prevented the binding of spike protein to ACE2,no effects on the viability,no effects on the viability,effective in inhibiting SARS-CoV-2 pseudovirus infection,no effects on ACE2 activity,did not affect the enzymatic activity of ACE2,did not decrease the ACE2 protein levels on cell surface,increase in protein melting temperature,did not decrease the expression levels of ACE2 protein,,
COCCN(CC(=O)NC(CCCCN)C(=O)NC(CCSC)C(N)=O)C(=O)CN(CC(C)C)C(=O)CN(CC(C)C)C(=O)CN(CCCOC(C)C)C(=O)CN(Cc1ccc(OC)cc1)C(=O)CNCc1ccc(OC)cc1 (stereo not shown) [ACE2P2] (H-[N(4-MeOBn)Gly][N(4-MeOBn)Gly][N((CH2)3OiPr)Gly][Nleu][Nleu][Nme]KM-NH2; configuration not given here),,,increased the binding of spike protein to ACE2,,,,,,,,,able to pull down the ACE2 protein,bound only to red stained ACE2^+ cells
